Data taken from ChEMBL document CHEMBL5385944, “Hydrazyl hydroxycoumarins as new potential conquerors towards Pseudomonas aeruginosa” (Bioorg Med Chem Lett, 2024).
Values after ≈ are worked out from the molar mass of the structure shown.

Experiments:
Format in all cases: functional
Staphylococcus aureus [1] = test: Antibacterial activity against methicillin resistant Staphylococcus aureus assessed as reduction in bacterial growth by CLSI protocol based method
Staphylococcus aureus [2] = test: Antibacterial activity against methicillin resistant Staphylococcus aureus 43300 assessed as reduction in bacterial growth by CLSI protocol based method
Enterococcus faecalis = test: Antibacterial activity against Enterococcus faecalis assessed as reduction in bacterial growth by CLSI protocol based method
Staphylococcus aureus [3] = test: Antibacterial activity against Staphylococcus aureus ATCC 25923 assessed as reduction in bacterial growth by CLSI protocol based method
Staphylococcus aureus [4] = test: Antibacterial activity against Staphylococcus aureus ATCC 29213 assessed as reduction in bacterial growth by CLSI protocol based method
Klebsiella pneumoniae = test: Antibacterial activity against Klebsiella pneumoniae assessed as reduction in bacterial growth by CLSI protocol based method
Pseudomonas aeruginosa [5] = test: Antibacterial activity against Pseudomonas aeruginosa assessed as reduction in bacterial growth by CLSI protocol based method
Pseudomonas aeruginosa [6] = test: Antibacterial activity against Pseudomonas aeruginosa ATCC 27853 assessed as reduction in bacterial growth by CLSI protocol based method
Pseudomonas aeruginosa [7] = test: Antibacterial activity against Pseudomonas aeruginosa ATCC 10104 assessed as reduction in bacterial growth by CLSI protocol based method
Pseudomonas aeruginosa [8] = test: Antibacterial activity against Pseudomonas aeruginosa ATCC 90027 assessed as reduction in bacterial growth by CLSI protocol based method
Acinetobacter baumannii = test: Antibacterial activity against Acinetobacter baumannii assessed as reduction in bacterial growth by CLSI protocol based method
Escherichia coli = test: Antibacterial activity against Escherichia coli ATCC 25922 assessed as reduction in bacterial growth by CLSI protocol based method

Row | SMILES | MIC (Staphylococcus aureus [1]) [µg/mL] | MIC (Staphylococcus aureus [2]) [µg/mL] | MIC (Enterococcus faecalis) [µg/mL] | MIC (Staphylococcus aureus [3]) [µg/mL] | MIC (Staphylococcus aureus [4]) [µg/mL] | MIC (Klebsiella pneumoniae) [µg/mL] | MIC (Pseudomonas aeruginosa [5]) [µg/mL] | MIC (Pseudomonas aeruginosa [6]) [µg/mL] | MIC (Pseudomonas aeruginosa [7]) [µg/mL] | MIC (Pseudomonas aeruginosa [8]) [µg/mL] | MIC (Acinetobacter baumannii) [µg/mL] | MIC (Escherichia coli) [µg/mL]
1 | O=c1ccc2ccc(O)c(/C=N/NS(=O)(=O)c3ccccc3)c2o1 | 512 (≈ 1490 µM) | 512 (≈ 1490 µM) | 512 (≈ 1490 µM) | 512 (≈ 1490 µM) | 32 (≈ 92.9 µM) | 2 (≈ 5.81 µM) | 512 (≈ 1490 µM) | 512 (≈ 1490 µM) | 512 (≈ 1490 µM) | 512 (≈ 1490 µM) | 512 (≈ 1490 µM) | 512 (≈ 1490 µM)
2 | O=c1ccc2ccc(O)c(/C=N/NS(=O)(=O)c3cccc4c3OCC4)c2o1 | 512 (≈ 1330 µM) | 512 (≈ 1330 µM) | 512 (≈ 1330 µM) | 512 (≈ 1330 µM) | 512 (≈ 1330 µM) | 512 (≈ 1330 µM) | 512 (≈ 1330 µM) | 512 (≈ 1330 µM) | 512 (≈ 1330 µM) | 512 (≈ 1330 µM) | 512 (≈ 1330 µM) | 512 (≈ 1330 µM)
3 | O=C(N/N=C/c1c(O)ccc2ccc(=O)oc12)c1ccccc1 | 256 (≈ 830 µM) | 512 (≈ 1660 µM) | 128 (≈ 415 µM) | 2 (≈ 6.49 µM) | 512 (≈ 1660 µM) | 32 (≈ 104 µM) | 16 (≈ 51.9 µM) | 256 (≈ 830 µM) | 1 (≈ 3.24 µM) | 32 (≈ 104 µM) | 512 (≈ 1660 µM) | 2 (≈ 6.49 µM)
4 | Cc1ncc([N+](=O)[O-])n1CC(=O)N/N=C/c1c(O)ccc2ccc(=O)oc12 | 256 (≈ 689 µM) | 128 (≈ 345 µM) | 32 (≈ 86.2 µM) | 4 (≈ 10.8 µM) | 256 (≈ 689 µM) | 256 (≈ 689 µM) | 256 (≈ 689 µM) | 8 (≈ 21.5 µM) | 64 (≈ 172 µM) | 32 (≈ 86.2 µM) | 256 (≈ 689 µM) | 256 (≈ 689 µM)
5 | O=C(N/N=C/c1c(O)ccc2ccc(=O)oc12)c1ccc(F)cc1 | 512 (≈ 1570 µM) | 16 (≈ 49 µM) | 512 (≈ 1570 µM) | 256 (≈ 785 µM) | 512 (≈ 1570 µM) | 256 (≈ 785 µM) | 512 (≈ 1570 µM) | 512 (≈ 1570 µM) | 128 (≈ 392 µM) | 512 (≈ 1570 µM) | 256 (≈ 785 µM) | 256 (≈ 785 µM)
6 | Nc1ncc(C(=O)N/N=C/c2c(O)ccc3ccc(=O)oc23)s1 | 16 (≈ 48.4 µM) | 64 (≈ 194 µM) | 128 (≈ 387 µM) | 1 (≈ 3.03 µM) | 256 (≈ 775 µM) | 8 (≈ 24.2 µM) | 256 (≈ 775 µM) | 32 (≈ 96.9 µM) | 2 (≈ 6.05 µM) | 1 (≈ 3.03 µM) | 1 (≈ 3.03 µM) | 128 (≈ 387 µM)
7 | N=C(N)N/N=C/c1c(O)ccc2ccc(=O)oc12 | 512 (≈ 2080 µM) | 256 (≈ 1040 µM) | 32 (≈ 130 µM) | 512 (≈ 2080 µM) | 64 (≈ 260 µM) | 512 (≈ 2080 µM) | 4 (≈ 16.2 µM) | 256 (≈ 1040 µM) | 512 (≈ 2080 µM) | 4 (≈ 16.2 µM) | 256 (≈ 1040 µM) | 256 (≈ 1040 µM)
8 | O=C(N/N=C/c1c(O)ccc2ccc(=O)oc12)c1ccc(Cl)cc1 | 512 (≈ 1490 µM) | 512 (≈ 1490 µM) | 256 (≈ 747 µM) | 256 (≈ 747 µM) | 256 (≈ 747 µM) | 256 (≈ 747 µM) | 256 (≈ 747 µM) | 256 (≈ 747 µM) | 32 (≈ 93.4 µM) | 256 (≈ 747 µM) | 256 (≈ 747 µM) | 256 (≈ 747 µM)
9 | O=C(N/N=C/c1c(O)ccc2ccc(=O)oc12)c1ccc([N+](=O)[O-])cc1 | 512 (≈ 1450 µM) | 512 (≈ 1450 µM) | 512 (≈ 1450 µM) | 512 (≈ 1450 µM) | 512 (≈ 1450 µM) | 512 (≈ 1450 µM) | 512 (≈ 1450 µM) | 512 (≈ 1450 µM) | 512 (≈ 1450 µM) | 512 (≈ 1450 µM) | 512 (≈ 1450 µM) | 4 (≈ 11.3 µM)
10 | CC(=O)Nc1ccc(S(=O)(=O)N/N=C/c2c(O)ccc3ccc(=O)oc23)cc1 | 512 (≈ 1280 µM) | 512 (≈ 1280 µM) | 512 (≈ 1280 µM) | 512 (≈ 1280 µM) | 512 (≈ 1280 µM) | 512 (≈ 1280 µM) | 512 (≈ 1280 µM) | 512 (≈ 1280 µM) | 512 (≈ 1280 µM) | 64 (≈ 159 µM) | 128 (≈ 319 µM) | 256 (≈ 638 µM)
11 | O=c1ccc2ccc(O)c(/C=N/NS(=O)(=O)c3ccc(Cl)cc3)c2o1 | 512 (≈ 1350 µM) | 512 (≈ 1350 µM) | 512 (≈ 1350 µM) | 512 (≈ 1350 µM) | 4 (≈ 10.6 µM) | 256 (≈ 676 µM) | 256 (≈ 676 µM) | 512 (≈ 1350 µM) | 512 (≈ 1350 µM) | 512 (≈ 1350 µM) | 512 (≈ 1350 µM) | 256 (≈ 676 µM)
